From the NIST ThermoML archive (doi:10.1016/j.jct.2013.09.017)

Experiments:
[1] = 101 kPa, Liquid; for viscosity: Capillary tube (Ostwald / Ubbelohde) method; for mass density: Vibrating tube method
[2] = xn = mol fraction of the nth substance listed; settings: 101 kPa, Liquid; for viscosity: Capillary tube (Ostwald / Ubbelohde) method; for mass density: Vibrating tube method

CCCCCCCCCC [decane]
[1]
Settings | mass density [kg/m3] | viscosity [mPa·s]
283.15 K | 737.54 | 1.082
293.15 K | 730.01 | 0.925
298.15 K | 726.22 | 0.858
303.15 K | 722.44 | 0.797

CCCCCCCCCC [decane] + CCCCCCCCN(CCCCCCCC)CCCCCCCC
[2], x2 = 0
Settings | mass density [kg/m3] | viscosity [mPa·s]
283.15 K | 737.54 | 1.082
293.15 K | 730.01 | 0.925
303.15 K | 722.44 | 0.797

CCCCCCC [heptane]
[1]
Settings | mass density [kg/m3] | viscosity [mPa·s]
283.15 K | 692.44 | 0.469
293.15 K | 684.05 | 0.42
298.15 K | 679.78 | 0.397
303.15 K | 675.54 | 0.377

CCCCCCC [heptane] + CCCCCCCCN(CCCCCCCC)CCCCCCCC
[2], x2 = 0
Settings | mass density [kg/m3] | viscosity [mPa·s]
283.15 K | 692.44 | 0.469
293.15 K | 684.05 | 0.42
303.15 K | 675.54 | 0.377

CCCCCCCCC [nonane]
[1]
Settings | mass density [kg/m3] | viscosity [mPa·s]
283.15 K | 725.58 | 0.826
293.15 K | 717.86 | 0.713
298.15 K | 713.95 | 0.667
303.15 K | 710.06 | 0.623

CCCCCCCCC [nonane] + CCCCCCCCN(CCCCCCCC)CCCCCCCC
[2], x2 = 0
Settings | mass density [kg/m3] | viscosity [mPa·s]
283.15 K | 725.58 | 0.826
293.15 K | 717.86 | 0.713
303.15 K | 710.06 | 0.623

CCCCCCCC [octane]
[1]
Settings | mass density [kg/m3] | viscosity [mPa·s]
283.15 K | 710.61 | 0.613
293.15 K | 702.6 | 0.541
298.15 K | 698.55 | 0.51
303.15 K | 694.5 | 0.481

CCCCCCCC [octane] + CCCCCCCCN(CCCCCCCC)CCCCCCCC
[2], x2 = 0
Settings | mass density [kg/m3] | viscosity [mPa·s]
283.15 K | 710.61 | 0.613
293.15 K | 702.6 | 0.541
303.15 K | 694.5 | 0.481

CCCCCCCCN(CCCCCCCC)CCCCCCCC [trioctylamine]
[1]
Settings | mass density [kg/m3] | viscosity [mPa·s]
283.15 K | 817.08 | 14.25
293.15 K | 810.48 | 9.957
298.15 K | 807.26 | 8.392
303.15 K | 803.88 | 7.114

CCCCCCCCN(CCCCCCCC)CCCCCCCC [trioctylamine] + CCCCCCCC
[2]
Settings | mass density, 283.15 K [kg/m3] | mass density, 293.15 K [kg/m3] | mass density, 303.15 K [kg/m3] | viscosity, 283.15 K [mPa·s] | viscosity, 293.15 K [mPa·s] | viscosity, 303.15 K [mPa·s]
x1 = 0.1044 | 737.14 | 729.58 | 721.95 | 1.045 | 0.899 | 0.78
x1 = 0.2005 | 755.2 | 747.83 | 740.4 | 1.63 | 1.356 | 1.145
x1 = 0.2992 | 769.49 | 762.3 | 755.07 | 2.385 | 1.933 | 1.593
x1 = 0.4001 | 780.98 | 773.93 | 766.85 | 3.399 | 2.665 | 2.145
x1 = 0.4977 | 789.85 | 782.91 | 775.97 | 4.545 | 3.491 | 2.734
x1 = 0.6012 | 797.54 | 790.72 | 783.87 | 5.969 | 4.482 | 3.46
x1 = 0.7015 | 803.68 | 796.94 | 790.09 | 7.556 | 5.594 | 4.231
x1 = 0.7978 | 808.69 | 802 | 795.3 | 9.424 | 6.848 | 5.092
x1 = 0.897 | 813.09 | 806.45 | 799.81 | 11.61 | 8.242 | 6.01
x1 = 1 | 817.08 | 810.48 | 803.88 | 14.25 | 9.957 | 7.114

CCCCCCCCN(CCCCCCCC)CCCCCCCC [trioctylamine] + CCCCCCCCC
[2]
Settings | mass density, 283.15 K [kg/m3] | mass density, 293.15 K [kg/m3] | mass density, 303.15 K [kg/m3] | viscosity, 283.15 K [mPa·s] | viscosity, 293.15 K [mPa·s] | viscosity, 303.15 K [mPa·s]
x1 = 0.1015 | 746.06 | 738.6 | 731.08 | 1.277 | 1.072 | 0.918
x1 = 0.2014 | 761.56 | 754.29 | 746.99 | 1.932 | 1.588 | 1.326
x1 = 0.3016 | 773.78 | 766.67 | 759.52 | 2.701 | 2.163 | 1.766
x1 = 0.3988 | 783.37 | 776.38 | 769.35 | 3.656 | 2.862 | 2.273
x1 = 0.4969 | 791.34 | 784.45 | 777.53 | 4.815 | 3.685 | 2.881
x1 = 0.5956 | 798.14 | 791.33 | 784.51 | 6.134 | 4.579 | 3.514
x1 = 0.6953 | 803.91 | 797.16 | 790.4 | 7.725 | 5.664 | 4.267
x1 = 0.7943 | 808.76 | 802.07 | 795.37 | 9.548 | 6.874 | 5.069
x1 = 0.9025 | 813.41 | 806.77 | 800.13 | 11.89 | 8.466 | 6.161
x1 = 1 | 817.08 | 810.48 | 803.88 | 14.25 | 9.957 | 7.114

CCCCCCCCN(CCCCCCCC)CCCCCCCC [trioctylamine] + CCCCCCCCCC
[2]
Settings | mass density, 283.15 K [kg/m3] | mass density, 293.15 K [kg/m3] | mass density, 303.15 K [kg/m3] | viscosity, 283.15 K [mPa·s] | viscosity, 293.15 K [mPa·s] | viscosity, 303.15 K [mPa·s]
x1 = 0.1113 | 755.32 | 748.01 | 740.66 | 1.64 | 1.371 | 1.152
x1 = 0.1979 | 766.34 | 759.17 | 751.96 | 2.266 | 1.837 | 1.514
x1 = 0.297 | 776.77 | 769.72 | 762.64 | 3.092 | 2.448 | 1.976
x1 = 0.3974 | 785.51 | 778.56 | 771.59 | 4.092 | 3.172 | 2.515
x1 = 0.5044 | 793.3 | 786.44 | 779.56 | 5.402 | 4.086 | 3.174
x1 = 0.5913 | 798.73 | 791.93 | 785.11 | 6.558 | 4.896 | 3.743
x1 = 0.6888 | 804.03 | 797.29 | 790.53 | 8.006 | 5.85 | 4.389
x1 = 0.7962 | 809.11 | 802.43 | 795.73 | 9.857 | 7.086 | 5.238
x1 = 0.8991 | 813.37 | 806.73 | 800.09 | 11.97 | 8.401 | 6.09
x1 = 1 | 817.08 | 810.48 | 803.88 | 14.25 | 9.957 | 7.114
